# Experimental data: US20100041089A1, “IMPROVED METHOD FOR DETECTING CHEMICAL […]” (priority 2006, published 2010)
# Tested on: yeast genes (expressed mRNA)
# Test: DNA chip measurement of expressed mRNA of yeast genes after culture with a toxic chemical substance
# Type: cell-based, Saccharomyces cerevisiae S288C
# How it was run: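 Yeast S288C, YPD 25° C; toxicant at log phase, 2 h, sublethal growth-inhibiting conc.; no-chemical control. Hot SDS/acetate RNA extraction, oligo-dT mRNA, Cy3/Cy5-dUTP RT. Whole-genome chip, 65° C >12 h. Readout: treated/control intensity ratio, ≥2 significant.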
smiles,measurement,setting,value
"CN(C)C(=S)SSC(=S)N(C)C [(10), Tetramethylthiuram disulfide]",The level of expressed mRNA in the presence of chemical substance/The level of expressed mRNA in the absence of chemical substance,"yeast gene YJL152W, cultured two hours with substance",1.0
same,The level of expressed mRNA in the presence of chemical substance/The level of expressed mRNA in the absence of chemical substance,"yeast gene YJL161W, cultured two hours with substance",2.1
same,The level of expressed mRNA in the presence of chemical substance/The level of expressed mRNA in the absence of chemical substance,"yeast gene YJL171C, cultured two hours with substance",1.7
same,The level of expressed mRNA in the presence of chemical substance/The level of expressed mRNA in the absence of chemical substance,"yeast gene YJL186W, cultured two hours with substance",0.5
same,The level of expressed mRNA in the presence of chemical substance/The level of expressed mRNA in the absence of chemical substance,"yeast gene YJR008W, cultured two hours with substance",1.9
same,The level of expressed mRNA in the presence of chemical substance/The level of expressed mRNA in the absence of chemical substance,yeast gene YJR010W,11.1
same,The level of expressed mRNA in the presence of chemical substance/The level of expressed mRNA in the absence of chemical substance,"yeast gene YJR054W, cultured two hours with substance",0.6
same,The level of expressed mRNA in the presence of chemical substance/The level of expressed mRNA in the absence of chemical substance,yeast gene YJR155W,18.8
same,The level of expressed mRNA in the presence of chemical substance/The level of expressed mRNA in the absence of chemical substance,"yeast gene YJR155W, cultured for two hours with substance",18.8
same,The level of expressed mRNA in the presence of chemical substance/The level of expressed mRNA in the absence of chemical substance,yeast gene YKL070W,11.0
same,The level of expressed mRNA in the presence of chemical substance/The level of expressed mRNA in the absence of chemical substance,"yeast gene YKL071W, cultured two hours with substance",109.2
same,The level of expressed mRNA in the presence of chemical substance/The level of expressed mRNA in the absence of chemical substance,"yeast gene YKL086W, cultured two hours with substance",20.5
same,The level of expressed mRNA in the presence of chemical substance/The level of expressed mRNA in the absence of chemical substance,"yeast gene YKL151C, cultured two hours with substance",3.5
same,The level of expressed mRNA in the presence of chemical substance/The level of expressed mRNA in the absence of chemical substance,"yeast gene YKL153W, cultured two hours with substance",1.4
same,The level of expressed mRNA in the presence of chemical substance/The level of expressed mRNA in the absence of chemical substance,"yeast gene YKL195W, cultured two hours with substance",2.1
same,The level of expressed mRNA in the presence of chemical substance/The level of expressed mRNA in the absence of chemical substance,yeast gene YKR076W,43.1
same,The level of expressed mRNA in the presence of chemical substance/The level of expressed mRNA in the absence of chemical substance,"yeast gene YKR091W, cultured two hours with substance",1.6
same,The level of expressed mRNA in the presence of chemical substance/The level of expressed mRNA in the absence of chemical substance,yeast gene YLL060C (detoxification protein gene),23.2
same,The level of expressed mRNA in the presence of chemical substance/The level of expressed mRNA in the absence of chemical substance,yeast gene YLL060C (stress protein genes),23.2
same,The level of expressed mRNA in the presence of chemical substance/The level of expressed mRNA in the absence of chemical substance,"yeast gene YLR054C, cultured two hours with substance",1.1
same,The level of expressed mRNA in the presence of chemical substance/The level of expressed mRNA in the absence of chemical substance,yeast gene YLR108C,10.4
same,The level of expressed mRNA in the presence of chemical substance/The level of expressed mRNA in the absence of chemical substance,"yeast gene YLR149C, cultured two hours with substance",5.2
same,The level of expressed mRNA in the presence of chemical substance/The level of expressed mRNA in the absence of chemical substance,"yeast gene YLR152C, cultured two hours with substance",1.1
same,The level of expressed mRNA in the presence of chemical substance/The level of expressed mRNA in the absence of chemical substance,"yeast gene YLR194C, cultured two hours with substance",1.1
same,The level of expressed mRNA in the presence of chemical substance/The level of expressed mRNA in the absence of chemical substance,"yeast gene YLR217W, cultured two hours with substance",8.2
same,The level of expressed mRNA in the presence of chemical substance/The level of expressed mRNA in the absence of chemical substance,"yeast gene YLR324W, cultured two hours with substance",1.4
same,The level of expressed mRNA in the presence of chemical substance/The level of expressed mRNA in the absence of chemical substance,"yeast gene YLR350W, cultured two hours with substance",1.4
same,The level of expressed mRNA in the presence of chemical substance/The level of expressed mRNA in the absence of chemical substance,"yeast gene YLR387C, cultured two hours with substance",3.0
same,The level of expressed mRNA in the presence of chemical substance/The level of expressed mRNA in the absence of chemical substance,"yeast gene YLR460C, cultured two hours with substance",31.6
same,The level of expressed mRNA in the presence of chemical substance/The level of expressed mRNA in the absence of chemical substance,"yeast gene YML117W, cultured two hours with substance",1.4
same,The level of expressed mRNA in the presence of chemical substance/The level of expressed mRNA in the absence of chemical substance,yeast gene YML131W,17.7
same,The level of expressed mRNA in the presence of chemical substance/The level of expressed mRNA in the absence of chemical substance,"yeast gene YMR009W, cultured two hours with substance",2.2
same,The level of expressed mRNA in the presence of chemical substance/The level of expressed mRNA in the absence of chemical substance,"yeast gene YMR034C, cultured two hours with substance",2.7
same,The level of expressed mRNA in the presence of chemical substance/The level of expressed mRNA in the absence of chemical substance,"yeast gene YMR067C, cultured two hours with substance",3.5
same,The level of expressed mRNA in the presence of chemical substance/The level of expressed mRNA in the absence of chemical substance,"yeast gene YMR090W, cultured two hours with substance",6.1
same,The level of expressed mRNA in the presence of chemical substance/The level of expressed mRNA in the absence of chemical substance,"yeast gene YMR095C, cultured two hours with substance",1.4
same,The level of expressed mRNA in the presence of chemical substance/The level of expressed mRNA in the absence of chemical substance,"yeast gene YMR097C, cultured two hours with substance",2.1
same,The level of expressed mRNA in the presence of chemical substance/The level of expressed mRNA in the absence of chemical substance,"yeast gene YMR102C, cultured two hours with substance",2.6
same,The level of expressed mRNA in the presence of chemical substance/The level of expressed mRNA in the absence of chemical substance,"yeast gene YMR107W, cultured two hours with substance",17.1
same,The level of expressed mRNA in the presence of chemical substance/The level of expressed mRNA in the absence of chemical substance,"yeast gene YMR140W, cultured two hours with substance",2.3
same,The level of expressed mRNA in the presence of chemical substance/The level of expressed mRNA in the absence of chemical substance,"yeast gene YMR180C, cultured two hours with substance",2.2
same,The level of expressed mRNA in the presence of chemical substance/The level of expressed mRNA in the absence of chemical substance,"yeast gene YMR184W, cultured two hours with substance",0.9
same,The level of expressed mRNA in the presence of chemical substance/The level of expressed mRNA in the absence of chemical substance,"yeast gene YMR191W, cultured two hours with substance",3.5
same,The level of expressed mRNA in the presence of chemical substance/The level of expressed mRNA in the absence of chemical substance,"yeast gene YMR251W, cultured two hours with substance",11.6
same,The level of expressed mRNA in the presence of chemical substance/The level of expressed mRNA in the absence of chemical substance,"yeast gene YMR295C, cultured two hours with substance",0.8
same,The level of expressed mRNA in the presence of chemical substance/The level of expressed mRNA in the absence of chemical substance,"yeast gene YMR316W, cultured two hours with substance",3.0
same,The level of expressed mRNA in the presence of chemical substance/The level of expressed mRNA in the absence of chemical substance,"yeast gene YMR322C, cultured two hours with substance",10.3
same,The level of expressed mRNA in the presence of chemical substance/The level of expressed mRNA in the absence of chemical substance,"yeast gene YNL044W, cultured two hours with substance",0.8
same,The level of expressed mRNA in the presence of chemical substance/The level of expressed mRNA in the absence of chemical substance,"yeast gene YNL074C, cultured two hours with substance",2.0
